In US9296720B2, “Carboxamide-substituted heteroaryl-pyrazoles and the use thereof” (AiCuris GmbH & Co. KG, priority 2011, dated 2016) one finds EC50 data, which are given here for 14 molecules.

Bounds are passed on as bounds.

Common to all, as to assay type: cell-based
One experiment relates to HIV-1NL4-3 Wild Type. Briefly: Luminescence reduction assay, MT4 cells infected with HIV-1NL4-3 luciferase reporter virus, wild type. To be noted: Human immunodeficiency virus 1, MT4, MT4 cells, 2% FCS. From the text:
(§1) For this assay, HIV-1NL4-3 reporter viruses are used, which carry the luciferase164 gene (lu164) instead of the nef gene. The viruses are generated by transfection of 293T cells with the corresponding proviral pNL4-3 plasmid (Lipofectamine Reagent, Invitrogen, Karlsruhe, Germany). Starting from the proviral plasmid-DNA, viruses with defined resistance mutations in the reverse transcriptase gene are produced with the “QuikChange II XL Site-Directed Mutagenesis Kit” (Stratagene, Cedar Creek, Tex., USA). Among other things, the following mutations are generated: A98G, A98G-K103N-V108I, A98S, F227C, F227L, G190A, G190S, K101E, K101Q-K103N, K103N, K103N-F227L, K103N-G190A, K103N-G190S, K103N-M230L, K103N-N348I, K103N-P225H, K103N-V108I, K103N-V108I-P225H, K103N-V179F-Y181C, K103N-Y181C, K103N-Y181C-G190A, L100I, L100I-K103N, L100I-K103N-V179I-Y181C, L100I-K103N-Y181C, L234I, N348I, P225H, P236L, V106A, V106A-E138K, V106A-F227C, V106A-F227L, V106I, V106I-Y188L, V106M, V108I, V179F-Y181C, V179I, V179I-Y181C, Y181C, Y181C-G190A, Y181C-M230L, Y181I, Y188L. MT4 cells infected with these reporter viruses (NIH AIDS Research and Reference Reagent Program) secrete luciferase into the medium, which makes possible the luminometric quantification of the virus replication.
(§2) For the batch of a 96-well MTP, 3 million MT4 cells are pelletized, suspended in 1 ml of RPMI 1640 medium without phenol red (Invitrogen, Karlsruhe, Germany)/10% FCS/2 mmol of L-glutamine/1% Pen/Strep (Invitrogen, Karlsruhe, Germany), and incubated together with a suitable amount of the corresponding HIV-1NL4-3 reporter virus for 2 hours at 37° C. (pellet infection). Non-adsorbed viruses are then washed out with PBS, the infected cells are pelletized again, and suspended in 8 ml of RPM 11640 medium without phenol red/2% or 10% FCS/2 mmol of L-glutamine/1% Pen/Strep. Therefrom, 80 μl per well is pipetted into a white 96-well MTP in 20 μl of test substance in a suitable dilution. In order to avoid boundary effects, the edge wells of the MTP are not used for substance dilutions. The second vertical row of the MTP contains only infected cells (virus control), and the eleventh vertical row contains only non-infected cells (cell control) in each case in RPMI 1640 medium without phenol red/2% or 10% FCS/2 mmol of L-glutamine/1% Pen/Strep. The other wells of the MTP contain the compounds according to the invention in different concentrations starting from the third vertical row, from which dilution of the test substances is carried out 3^7 times in three steps up to the tenth vertical row. The test substances are dissolved in DMSO, whereby the DMSO final concentration in the test batch is ultimately 1%. The test batches are incubated for 5 days at 37° C./5% CO2, and are luminometrically evaluated after the addition of 15 μl of Lu164-buffer (65 mmol of NaCl, 300 mmol of MES, pH 5.8, 5 mmol of glutathione and 1:200 coelenterazine (5 mg/ml in 30 μM of glutathione/DMSO) (P.J.K. GmbH, Kleinblittersdorf, Germany)). In the virus control, the resulting values are in the range of 1 million RLUs (relative light units), and in the cell control, the resulting values are 300 to 400 RLUs. The EC50 values of the test substances are determined as the concentration of the treated infected cells, in which the virus replication measured in RLUs is 50% of the untreated infected cells.
A general note: Reporter assays use an easily measured gene product as a stand-in for the process of interest.

The next experiment relates to HIV-1LAI Wild Type. Briefly: AlamarBlue viability assay, HIV-1LAI-infected MT4 cells. The following applies: Human immunodeficiency virus 1, MT4, MT4 cells, 10% FCS. As for the experimental part: For the batch of a 96-well MTP, 3 million PBLs are pelletized, suspended in 1 ml of RPMI 1640 medium/10% FCS/2 mmol of L-glutamine/1% Pen/Strep, and incubated together with a suitable amount of HIV-1LA1 (NIH AIDS Research & Reference Reagent Program, Germantown, USA) for 2 hours at 37° C. (pellet infection). Non-adsorbed viruses are then washed out with PBS, the infected cells are pelletized again, and suspended in 18 ml of RPMI 1640 medium/10% FCS/2 mmol of L-glutamine/1% Pen/Strep/interleukin-2 (40 U/ml). Therefrom, 180 μl per well is pipetted into a white 96-well MTP in 20 μl of test substance in a suitable dilution. As an alternative, after preparation of the substance dilutions, the HIV is added by pipetting in the MTP together with the cells and is no longer washed out (supernatant infection). In order to avoid boundary effects, the edge wells of the MTP are not used for substance dilutions. The second vertical row of the MTP contains only infected cells (virus control), and the eleventh vertical row contains only non-infected cells (cell control) in each case in RPMI 1640 medium/10% FCS/2 mmol of L-glutamine/1% Pen/Strep/interleukin-2 (40 U/ml). The other wells of the MTP contain the compounds according to the invention in different concentrations starting from the third vertical row, from which dilution of the test substances is carried out 3^7 times in three steps up to the tenth vertical row. The test substances are dissolved in DMSO, whereby the DMSO final concentration in the test batch is ultimately 1%. The test batches are incubated at 37° C./5% CO2. After 5 and 7 days, in each case 50 μl of cell-free supernatant is drawn off from each well in order to determine the amount of p24 contained by means of p24 ELISA (HIV-1 p24^CA Antigen Capture Assay Kit, NCI-Frederick Cancer Research and Development Center, Frederick, USA). From the resulting values of the photometric analysis (450/620 nm), the EC50 values of the test substances are determined as the concentration of the treated infected cells, in which the amount of p24 is 50% of the untreated infected cells.
As an alternative, MT4 cells are used for testing test substances instead of PBLs. HIV-1LA1-infected MT4 cells (MOI 0.01, supernatant infection) are incubated according to the above-described pattern in RPMI 1640 medium with 2% or 10% FCS/2 mmol of L-glutamine/1% Pen/Strep in the presence of test substances for 5 days at 37° C./5% CO2 (20 μl of substance dilution and 80 μl of cells/virus per well). Then, 10 μl of AlamarBlue (Invitrogen, Karlsruhe, Germany) is added to each well, and MTPs are incubated for 3 hours at 37° C., before the fluorimetric analysis is done (544/590 nm). The resulting values are approximately 30,000 in the case of untreated, non-infected cells, and approximately 6,000 in the case of untreated infected cells. In the low concentration range, the EC50 values of the test substances are determined as the concentration of the treated infected cells, in which the fluorescence is 50% of the untreated non-infected cells (in each case relative to the values of the untreated infected cells). In addition, in the high concentration range, the CC50 values of the test substances are determined as the concentration of the treated infected cells, in which the fluorescence is 50% of the untreated, non-infected cells (in each case relative to the values of the untreated infected cells).
In general terms: The colour change of resazurin is a common sign of viable cells or microbes.

The subject of another experiment is HIV-1NL4-3 K103N-Y181C. Briefly: Luminescence reduction assay, MT4 cells infected with HIV-1NL4-3 luciferase reporter virus, RT mutant K103N-Y181C. The following applies: Human immunodeficiency virus 1, MT4, read-out: EC50 (μM) MT4 Cells HIV-1NL4-3 K103N-Y181C 2% FCS, MT4 cells, HIV-1NL4-3 K103N-Y181C, 2% FCS.
Excerpt: as §1, §2

As usually defined, the EC50 is the concentration giving half of the maximal effect.

Turning to `O=C(c1cc(-c2cc(Cl)cc(OC(F)(F)F)c2)n(-c2cccnc2)n1)N1CC[S+]([O-])C1` (racemic) [Example 78, {5-[3-Chloro-5-(trifluoromethoxy)phenyl]-1-(pyridin-3-yl)-1H-pyrazol-3-yl}(1-oxido-1,3-thiazolidin-3-yl)methanone], the EC50 in the experiment on HIV-1NL4-3 Wild Type was determined as 0.078 µM; in the experiment on HIV-1LAI Wild Type, 0.367 µM; in the experiment on HIV-1NL4-3 K103N-Y181C, 0.277 µM.
On to `O=C1CN(C(=O)c2cc(-c3cc(F)cc(Cl)c3)n(-c3ccccn3)n2)CN1` [Example 1, 1-{[5-(3-Chloro-5-fluorophenyl)-1-(pyridin-2-yl)-1H-pyrazol-3-yl]carbonyl}imidazolidin-4-one], for which the EC50 with HIV-1NL4-3 Wild Type is 0.345 µM; in the experiment with HIV-1LAI Wild Type, more than 3.3 µM; in the experiment with HIV-1NL4-3 K103N-Y181C it was more than 3.3 µM.
With `O=C1CN(C(=O)c2cc(-c3cc(F)cc(Cl)c3)n(-c3cccc(Cl)n3)n2)CN1` [Example 2, 1-{[5-(3-Chloro-5-fluorophenyl)-1-(6-chloropyridin-2-yl)-1H-pyrazol-3-yl]carbonyl}imidazolidin-4-one], the EC50 is 0.272 µM in the experiment on HIV-1NL4-3 Wild Type, more than 3.3 µM in the experiment with HIV-1LAI Wild Type and more than 3.3 µM in the experiment with HIV-1NL4-3 K103N-Y181C.
Regarding `O=C1CN(C(=O)c2cc(-c3cc(F)cc(Cl)c3)n(-c3cccnc3)n2)CN1` [Example 3, 1-{[5-(3-Chloro-5-fluorophenyl)-1-(pyridin-3-yl)-1H I-pyrazol-3-yl]carbonyl}imidazolidin-4-one], the EC50 with HIV-1NL4-3 Wild Type was 0.006 µM; in the experiment on HIV-1LAI Wild Type, 0.028 µM; in the experiment on HIV-1NL4-3 K103N-Y181C it was 0.067 µM.
The like results for `O=C1CN(C(=O)c2cc(-c3cc(F)cc(Cl)c3)n(-c3cccnc3)n2)CCN1` [Example 4, 4-{[5-(3-Chloro-5-fluorophenyl)-1-(pyridin-3-yl)-1H-pyrazol-3-yl]carbonyl}piperazin-2-one] were, in that order, 0.036 µM, 0.108 µM and 0.132 µM.
As to `O=C(c1cc(-c2cc(F)cc(Cl)c2)n(-c2cccnc2)n1)N1CCSC1` [Example 5, [5-(3-Chloro-5-fluorophenyl)-1-(pyridin-3-yl)-1H-pyrazol-3-yl](1,3-thiazolidin-3-yl)methanone], the EC50 was found to be 0.023 µM with HIV-1NL4-3 Wild Type, 0.533 µM in the experiment with HIV-1LAI Wild Type and 1.32 µM in the experiment on HIV-1NL4-3 K103N-Y181C.
For `O=C1CN(C(=O)c2cc(-c3cc(F)cc(Cl)c3)n(-c3ccc(Cl)nc3)n2)CN1` [Example 7, 1-{[5-(3-Chloro-5-fluorophenyl)-1-(6-chloropyridin-3-yl)-1H-pyrazol-3-yl]carbonyl}imidazolidin-4-one], in that order: 0.01 µM, 0.064 µM and 0.018 µM.
The like results for `O=C1CN(C(=O)c2cc(-c3cc(F)cc(Cl)c3)n(-c3ccc(Cl)nc3)n2)CCN1` [Example 8, 4-{[5-(3-Chloro-5-fluorophenyl)-1-(6-chloropyridin-3-yl)-1H-pyrazol-3-yl]carbonyl}piperazin-2-one] were, in that order, 0.06 µM, 0.205 µM and 0.29 µM.
For `O=C1CN(C(=O)c2cc(-c3cc(F)cc(Cl)c3)n(-c3cncc(Cl)c3)n2)CN1` [Example 9, 1-{[5-(3-Chloro-5-fluorophenyl)-1-(5-chloropyridin-3-yl)-1H-pyrazol-3-yl]carbonyl}imidazolidin-4-one], in that order: 0.035 µM, 0.149 µM and 0.32 µM.
As to `O=C1CN(C(=O)c2cc(-c3cc(F)cc(Cl)c3)n(-c3cncc(Cl)c3)n2)CCN1` [Example 10], the figures for the EC50 in the experiment with HIV-1NL4-3 Wild Type, with HIV-1LAI Wild Type and in the experiment with HIV-1NL4-3 K103N-Y181C were 0.149 µM, 1.71 µM and more than 3.3 µM, respectively.
For `Cc1ccc(-n2nc(C(=O)N3CNC(=O)C3)cc2-c2cc(F)cc(Cl)c2)cn1` [Example 11, 1-{[5-(3-Chloro-5-fluorophenyl)-1-(6-methylpyridin-3-yl)-1H-pyrazol-3-yl]carbonyl}imidazolidin-4-one], in that order: 0.007 µM, 0.057 µM and 0.061 µM.
The like results for `Nc1ccc(-n2nc(C(=O)N3CNC(=O)C3)cc2-c2cc(F)cc(Cl)c2)cn1` [Example 12, 1-{[1-(6-Aminopyridin-3-yl)-5-(3-chloro-5-fluorophenyl)-1H-pyrazol-3-yl]carbonyl}imidazolidin-4-one] were, in that order, 0.189 µM, 1.79 µM and 0.377 µM.
For `O=C1CN(C(=O)c2cc(-c3cc(F)cc(Cl)c3)n(-c3ccncc3)n2)CN1` [Example 13, 1-{[5-(3-Chloro-5-fluorophenyl)-1-(pyridin-4-yl)-1H-pyrazol-3-yl]carbonyl}imidazolidin-4-one], in that order: 0.323 µM, 1.34 µM and 0.88 µM.
As for `O=C1CN(C(=O)c2cc(-c3cc(F)cc(Cl)c3)n(-c3ccnc(Cl)c3)n2)CN1` [Example 14, 1-{[5-(3-Chloro-5-fluorophenyl)-1-(2-chloropyridin-4-yl)-1H-pyrazol-3-yl]carbonyl}imidazolidin-4-one], the EC50 worked out at 0.005 µM in the experiment with HIV-1NL4-3 Wild Type, 0.096 µM in the experiment with HIV-1LAI Wild Type and 0.067 µM in the experiment with HIV-1NL4-3 K103N-Y181C.
